What was measured:
CHLA-02 [1] = assay: Proliferation assay (standard growth media), OTSSP167 dose-response; format: cell-based; details: Homo sapiens, 96 h, Day 4
Experimental: (§1) Tumour cells were seeded in quadruplicates for each treatment condition (FIG. 5B). OTSSP167 was added. Cell proliferation was determined, and optical density (OD) was measured using a fluorescence/luminescence detection System.

BT-37 [2] = assay: as above; format: cell-based, human
Experimental: as §1

six ATRT cell lines = assay: Proliferation assay (standard growth media), panel; format: cell-based, human; details: over 13 days
Experimental: as §1

CHLA-04 = assay: Proliferation assay (standard growth media), OTSSP167; format: cell-based, human; details: MELK-low CHLA-04; 50 nM dose
Experimental: as §1

BT-37 [3] = assay: Flow cytometry for apoptotic cell death (Annexin V/PI); format: cell-based, human; details: BT-37 cells; 48 hours of OTSSP167 treatment
Experimental: (§2) Tumour cells were treated in culture with OTSSP167 to detect apoptosis (FIG. 5C). At each timepoint, cells were harvested and stained with Annexin V-FITC and PI. Stained cells were then analysed by flow cytometry at the excitation wavelength of 488 nm (FITC) and 595 nM (PI). Cultured cells were treated with OTSSP167 to study the cell cycle changes. Cells were harvested and fixed with absolute ethanol. Fixed cells were stained with PI/RNase A master mix (PI and RNase A) prior to analysis by flow cytometry.

CHLA-02 [4] = assay: as above; format: cell-based, human; details: CHLA-02 cells; 48 hours of OTSSP167 treatment
Experimental: as §2

CHLA-02 and BT-37 cells = assay: Immunoblotting after OTSSP167 treatment; format: cell-based, human
Experimental: Cells were lysed in RIPA buffer with 1% Protease and Phosphatase Inhibitor Cocktail on ice. Protein samples were first denatured with 5% β-mercaptoethanol in Laemmli's buffer at 95° C. Protein concentration was determined using Protein Assay Kit. Protein lysates were resolved, and equal amounts of denatured proteins was run on NuPAGE 4-12% Bis-Tris Protein Gel and transferred onto PVDF membrane. Membrane blots for phosphorylated Histone H2A.X were blocked with 5% Bovine serum albumin (BSA) in 1× TBS-T ([…] Tris-buffered Saline, 0.1 % Tween® 20). Other membrane blots were blocked with 5% skim milk in 1× TBS-T for 1 hour and incubated with its respective primary antibodies at 4° C. overnight. Protein bands were visualized using an imaging system with Western blotting substrate. Primary antibodies used were: Eg5, cleaved PARP, β-actin, cleaved caspase-3, and p53, p-Histone H2A.X, p21. Secondary antibodies included: anti-rabbit IgG HRP-linked and anti-mouse IgG HRP linked.

[5] = system: autopsy-derived patient-derived orthotopic xenograft (PDOX) Model of ATRT; assay: Orthotopic xenograft survival, intraperitoneal OTSSP167; format: in vivo, mice; details: 5 mg/kg daily intraperitoneal for 14 days; p=0.032, Log-rank test
Experimental: (§3) Rag2/Severe combined immune deficiency (SCID) mice were bred and housed in a pathogen-free facility. Surgical implantation of tumour cells ([…]) into mouse cerebrum was performed using the method of the present disclosure previously described by studies in the art. The general recommendations in ARRIVE guidelines 2.0 (https://arriveguidelines.org/) were followed in the study of the present disclosure. The sample size of the present disclosure was small. […] The animals were randomly assigned into treatment versus control groups to have approximately equal number of animals per group. […] Treatment was delivered to animals assigned in treatment group, cage-by-cage. Blinding was not possible as the inventor of the present disclosure have a small team of 2-3 individuals working with the animals and the inventor of the present disclosure are all involved at various stages and day-to-day processes of the animal work. Separate batches comprising of various litters were used, minimizing bias from the same litter effect. The inventor of the present disclosure has previously published using this animal protocol and is not otherwise deposited in any repository/registry.
OTSSP167 was dissolved in a solution of dimethyl sulfoxide, Kolliphor® EL and sterile water. […]
Mice were carefully monitored daily their fitness using a clinical staging system we previously published. […]

CHLA-02, BT-37 = assay: Cell proliferation assay (secretome-based or growth-media-based), DMSO or OTSSP167; set-up: species or system human
Experimental: Human myeloid-derived cells (U937) were seeded at a fixed density and stimulated with PMA and IL-4 for 48 h to obtain CD 11b+ cells. Stimulated human myeloid-derived macrophages were harvested without trypsinization (Biological replicate 1 in FIG. 4D and FIG. 5E) and with trypsinization (Biological replicate 2 and 3 in FIG. 4D and FIG. 5E). These cells highly express CD11b+ with or without trypsinization (FIG. 14A). CD11b+ cells were washed twice with PBS. CD11b+ cells were plated at a fixed density in 1 ml of pure RPMI (serum-free) to obtain CD11b+ supernatants (Condition 2). CD11b+ cells (same density) were co-incubated with tumour cells at 1:1 ratio in pure RPMI (serum-free) to obtain co-culture supernatant (Condition 3). Tumour cells were seeded at the same density to obtain tumour supernatant (Condition 1). […]
Tumour cells were suspended in 3 types of cell-free supernatants: CD 11b+ supernatant, tumour supernatant, and CD11b+-tumour co-culture supernatant. […] Cell viability was determined by a kit at 4 h, 24 h, 48 h, 72 h time points, over a period of 3 days. Optical density (OD) was measured using a fluorescence/luminescence detection system (FIGS. 4A, 4B, FIG. 18). All other absorbance (OD) was measured at 450 nm using a multilabel plate reader. Absorbance of wells with serum-free pure RPMI was used as blank.

BT-37 [6] = assay: Apoptosis assay of OTSSP167-treated cells, standard growth media versus six-factor secretome; format: cell-based, human
Experimental: (§4) Tumour cells were cultured in either standard growth media or six-factor-secretome for […] different duration −4 h, 24 h, 48 h and 96 h (FIG. 5G). To study the killing effect of OTSSP167, tumour cells cultured in each condition (standard growth media or six-factor-secretome) were treated with OTSSP167. Cells were harvested at respective timepoints and stained with FITC-Annexin V and/or Propidium lodide. Stained cells were then analysed by flow cytometry at the excitation wavelength of 488 nm (FITC) and 595 nM (PI). A total of 10,000 cells were analysed per measurement.

CHLA-02 [7] = assay: as above; format: cell-based, human; details: FIG. 37
Experimental: as §4

Daoy = assay: Drug treatment in secretome versus standard media (FIG. 41); format: cell-based, human
D341 = assay: as above; format: cell-based, human
[8] = system: CHLA01 (primary tumour cells); assay: as above; format: cell-based, human; details: CHLA01 neurospheres
[9] = system: CHLA01R (recurrent/relapse tumour cells); assay: as above; format: cell-based, human; details: CHLA01R neurospheres
[10] = system: ATRT cell lines and medulloblastoma; assay: Drug efficacy in the presence of the secretome; format: cell-based, human; details: during early tumourigenesis
CHLA-02 [11] = assay: Photomicrographs of growth morphology in T75 flasks; format: cell-based, human; details: OTSSP167 in secretome versus standard growth media
another ATRT mouse model = details: cited from earlier work
Medulloblastoma = assay: Ispinesib in PDX brain tumors implanted using secretome+Tumor (Batch 94B); format: in vivo, mice; details: 10 mg/kg intraperitoneally every four days for three doses, repeated on day 21
Experimental: as §3
OTSSP167 was dissolved in a solution of dimethyl sulfoxide, Kolliphor® EL and sterile water. A daily dose of 5 mg/kg of OTSSP167 was administered to the mice via intraperitoneal injection for 14 days. […]

With `CC(=O)c1cnc2ccc(-c3cc(Cl)c(O)c(Cl)c3)nc2c1N[C@H]1CC[C@H](CN(C)C)CC1` [OTSSP167, 1-(6-(3,5-dichloro-4-hydroxyphenyl)-4-(((1r,4r)-4-((dimethylamino)methyl)cyclohexyl)amino)-1,5-naphthyridin-3-yl)ethenone] the IC50 (CHLA-02 [1]) was 20.8 nM, the IC50 (BT-37 [2]; Homo sapiens, 96 h, BT-37, Day 4) was 70.4 nM and the “effect against tumour cells” value (BT-37 [2]; MELK-high BT-37 cells, 5 nM dose) was “effective”. The “efficacy across panel of ATRT cell lines (dose-response)” value (six ATRT cell lines) was “efficacious across a panel of six ATRT cell lines in nanomolar ranges”, the “effect against tumour cells” value (CHLA-04) was “effective” and the “early and late apoptotic cells” value (BT-37 [3]) was 58.1%. The “early and late apoptotic cells” value (CHLA-02 [4]) was 50.7%, the “p-Histone H2A.X (DNA damage)” value (CHLA-02 and BT-37 cells; 24 h, 48 h and 72 h treatment) was “increased” and the “c-PARP (intrinsic apoptosis pathway)” value (CHLA-02 and BT-37 cells; OTSSP167 treatment) was “increased”. The p53 (CHLA-02 and BT-37 cells; OTSSP167 treatment) was “increased”, the “overall survival of animals” value [5] was “significantly improved” and the “OTSSP167 efficacy in six-factor-secretome compared to standard growth media (tumour proliferation)” value (CHLA-02, BT-37) was “decreased”. The “cell death with OTSSP167 in secretome compared to standard media conditions” value (BT-37 [6]; BT-37, FIG. 38) was “more cell death”, the “cell death of OTSSP167-treated BT-37 versus CHLA-02 in secretome” value (BT-37 [6]; in secretome after 24-48 h) was “more cell death than CHLA-02 cells” and the “cell death with OTSSP167 in secretome compared to standard media conditions” value (CHLA-02 [7]) was “more cell death”. For the same compound, the “cell death/survival with drug in secretome compared to standard media” value (from here on “cell death/survival … compared to standard media”) (Daoy) was “higher cell death”, the “cell death/survival … compared to standard media” value (D341) was “higher cell death” and the “cell death/survival … compared to standard media” value [8] was “survive better”. For the same compound, the “cell death/survival … compared to standard media” value [9] was “survive better”, the “drug efficacy in the presence of the secretome” value [10] was “reduced” and the “growth morphology of tumour cells treated with OTSSP167 in secretome” value (CHLA-02 [11]) was “maintained their interlacing, web-like architecture”. For the same compound, the blood-brain-barrier penetration (another ATRT mouse model) was “penetrate blood-brain-barrier”.

With `Cc1ccc(C(=O)N(CCCN)[C@@H](c2nc3cc(Cl)ccc3c(=O)n2Cc2ccccc2)C(C)C)cc1` [Ispinesib, (R)-N-(3-aminopropyl)-N-(1-(3-benzyl-7-chloro-4-oxo-3,4-dihydroquinazolin-2-yl)-2-methylpropyl)-4-methylbenzamide] the “cell death/survival … compared to standard media” value (D341) was “survive better”, the “cell death/survival … compared to standard media” value [8] was “survive better” and the “cell death/survival … compared to standard media” value [9] was “survive better”. The “drug efficacy in the presence of the secretome” value [10] was “reduced” and the “efficacy in PDX brain tumors implanted using secretome+Tumor” value (Medulloblastoma) was “effective”.

Source: patent US20260243757A1, “IMMUNE CELL-DERIVED SECRETOME” (Agency for Science, Technology and Research, priority 2023, published 2026)
